In ChEMBL document CHEMBL4507257, “Data for DCP probe ABT-100” (2021):

Tests used:
[1] = molecular target: T1, Muscarinic acetylcholine receptor M1 (Homo sapiens) (UniProt P11229); conditions: Compound concentration 10.0 uM
T1 sequence (whole entry): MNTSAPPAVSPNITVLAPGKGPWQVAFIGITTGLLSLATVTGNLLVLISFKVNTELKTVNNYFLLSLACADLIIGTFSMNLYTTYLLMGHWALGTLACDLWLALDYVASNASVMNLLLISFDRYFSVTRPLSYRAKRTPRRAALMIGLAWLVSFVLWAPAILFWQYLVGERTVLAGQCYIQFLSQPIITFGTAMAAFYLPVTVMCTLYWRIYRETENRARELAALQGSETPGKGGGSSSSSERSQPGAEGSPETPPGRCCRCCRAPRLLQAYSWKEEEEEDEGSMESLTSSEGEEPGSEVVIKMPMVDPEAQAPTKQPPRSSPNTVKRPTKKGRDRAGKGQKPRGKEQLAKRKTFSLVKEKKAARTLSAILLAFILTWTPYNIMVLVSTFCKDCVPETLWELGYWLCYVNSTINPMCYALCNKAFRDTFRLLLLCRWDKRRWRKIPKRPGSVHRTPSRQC

[2] = molecular target: Mitogen-activated protein kinase 7 (Homo sapiens) (UniProt Q13164); conditions: Compound concentration 1000.0 nM
[3] = molecular target: Receptor-interacting serine/threonine-protein kinase 1 (Homo sapiens) (UniProt Q13546); conditions: Compound concentration 1000.0 nM
Chain of Receptor-interacting serine/threonine-protein kinase 1 (Homo sapiens) (Q13546 whole entry, canonical isoform): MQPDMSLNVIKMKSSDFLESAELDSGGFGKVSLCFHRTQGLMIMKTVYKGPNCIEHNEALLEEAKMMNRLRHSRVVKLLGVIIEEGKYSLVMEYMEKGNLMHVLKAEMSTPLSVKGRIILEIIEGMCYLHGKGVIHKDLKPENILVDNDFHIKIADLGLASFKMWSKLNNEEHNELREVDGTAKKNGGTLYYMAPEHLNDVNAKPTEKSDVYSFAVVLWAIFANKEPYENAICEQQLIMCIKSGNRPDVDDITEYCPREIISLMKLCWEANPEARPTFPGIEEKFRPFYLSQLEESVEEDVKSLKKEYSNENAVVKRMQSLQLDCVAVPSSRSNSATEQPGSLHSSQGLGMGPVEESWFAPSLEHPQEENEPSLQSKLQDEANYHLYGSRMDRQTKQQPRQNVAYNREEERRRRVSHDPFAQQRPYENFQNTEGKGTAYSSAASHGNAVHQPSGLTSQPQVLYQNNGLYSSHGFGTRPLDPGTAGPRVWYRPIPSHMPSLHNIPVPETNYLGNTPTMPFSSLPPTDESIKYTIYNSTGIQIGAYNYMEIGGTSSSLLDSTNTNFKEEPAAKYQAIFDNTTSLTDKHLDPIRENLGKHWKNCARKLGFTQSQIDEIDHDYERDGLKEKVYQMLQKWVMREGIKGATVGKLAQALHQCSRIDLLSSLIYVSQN

[4] = molecular target: Casein kinase I isoform gamma-3 (Homo sapiens) (UniProt Q9Y6M4); conditions: Compound concentration 1000.0 nM
[5] = molecular target: Tyrosine-protein kinase Fer (Homo sapiens) (UniProt P16591); conditions: Compound concentration 1000.0 nM
[6] = system: Phosphatidylinositol 4,5-bisphosphate 3-kinase catalytic subunit alpha isoform (Homo sapiens), P42336 [C420R]; conditions: Compound concentration 1000.0 nM
[7] = molecular target: Mitogen-activated protein kinase 14 (Homo sapiens) (UniProt Q16539); conditions: Compound concentration 1000.0 nM
[8] = molecular target: Fibroblast growth factor receptor 3 (Homo sapiens) (UniProt P22607); conditions: Compound concentration 1000.0 nM
[9] = molecular target: Mitogen-activated protein kinase 1 (Homo sapiens) (UniProt P28482); conditions: Compound concentration 1000.0 nM
[10] = molecular target: Leucine-rich repeat serine/threonine-protein kinase 2 (Homo sapiens) (UniProt Q5S007); conditions: Compound concentration 1000.0 nM
[11] = molecular target: Vascular endothelial growth factor receptor 2 (Homo sapiens) (UniProt P35968); conditions: Compound concentration 1000.0 nM
Chain of Vascular endothelial growth factor receptor 2 (Homo sapiens) (P35968 whole entry): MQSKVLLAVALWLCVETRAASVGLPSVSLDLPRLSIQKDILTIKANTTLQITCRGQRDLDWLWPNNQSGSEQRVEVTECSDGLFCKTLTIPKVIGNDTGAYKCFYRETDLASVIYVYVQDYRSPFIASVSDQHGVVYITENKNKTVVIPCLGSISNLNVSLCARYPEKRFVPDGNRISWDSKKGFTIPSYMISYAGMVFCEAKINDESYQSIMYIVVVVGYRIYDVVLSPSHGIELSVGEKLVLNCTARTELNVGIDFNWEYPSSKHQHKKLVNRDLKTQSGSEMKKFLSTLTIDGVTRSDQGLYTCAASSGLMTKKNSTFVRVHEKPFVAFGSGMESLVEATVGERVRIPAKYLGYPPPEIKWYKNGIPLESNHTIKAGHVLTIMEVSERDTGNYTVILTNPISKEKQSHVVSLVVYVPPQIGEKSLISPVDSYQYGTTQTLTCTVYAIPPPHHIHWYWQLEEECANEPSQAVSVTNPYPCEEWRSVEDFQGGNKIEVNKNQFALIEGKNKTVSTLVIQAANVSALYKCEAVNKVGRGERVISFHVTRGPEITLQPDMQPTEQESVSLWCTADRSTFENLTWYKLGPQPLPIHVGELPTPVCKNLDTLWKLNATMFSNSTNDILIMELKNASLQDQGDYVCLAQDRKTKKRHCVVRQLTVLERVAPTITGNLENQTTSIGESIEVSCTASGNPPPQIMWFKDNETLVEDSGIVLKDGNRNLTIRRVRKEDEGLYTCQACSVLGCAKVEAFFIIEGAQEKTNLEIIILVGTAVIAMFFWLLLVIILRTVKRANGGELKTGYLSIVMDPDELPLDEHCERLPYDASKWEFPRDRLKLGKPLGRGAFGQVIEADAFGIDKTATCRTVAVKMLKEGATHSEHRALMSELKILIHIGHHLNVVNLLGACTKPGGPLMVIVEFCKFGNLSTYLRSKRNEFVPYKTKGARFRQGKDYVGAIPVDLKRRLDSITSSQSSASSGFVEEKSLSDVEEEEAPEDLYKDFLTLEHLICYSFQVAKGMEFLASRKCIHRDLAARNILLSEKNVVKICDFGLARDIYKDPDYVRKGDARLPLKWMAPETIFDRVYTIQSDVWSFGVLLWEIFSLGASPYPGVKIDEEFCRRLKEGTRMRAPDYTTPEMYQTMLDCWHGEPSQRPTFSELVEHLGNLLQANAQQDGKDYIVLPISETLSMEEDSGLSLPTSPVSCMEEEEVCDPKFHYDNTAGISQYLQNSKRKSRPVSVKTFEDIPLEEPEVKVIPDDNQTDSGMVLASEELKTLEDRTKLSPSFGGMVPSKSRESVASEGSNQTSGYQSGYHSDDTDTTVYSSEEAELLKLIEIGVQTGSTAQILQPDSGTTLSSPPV

[12] = molecular target: Serine/threonine-protein kinase 38 (Homo sapiens) (UniProt Q15208); conditions: Compound concentration 1000.0 nM
[13] = system: Epidermal growth factor receptor (Homo sapiens), P00533 [UNDEFINED MUTATION]; conditions: Compound concentration 1000.0 nM
[14] = molecular target: cAMP-dependent protein kinase catalytic subunit PRKX (Homo sapiens) (UniProt P51817); conditions: Compound concentration 1000.0 nM
Chain of cAMP-dependent protein kinase catalytic subunit PRKX (Homo sapiens) (P51817 whole entry): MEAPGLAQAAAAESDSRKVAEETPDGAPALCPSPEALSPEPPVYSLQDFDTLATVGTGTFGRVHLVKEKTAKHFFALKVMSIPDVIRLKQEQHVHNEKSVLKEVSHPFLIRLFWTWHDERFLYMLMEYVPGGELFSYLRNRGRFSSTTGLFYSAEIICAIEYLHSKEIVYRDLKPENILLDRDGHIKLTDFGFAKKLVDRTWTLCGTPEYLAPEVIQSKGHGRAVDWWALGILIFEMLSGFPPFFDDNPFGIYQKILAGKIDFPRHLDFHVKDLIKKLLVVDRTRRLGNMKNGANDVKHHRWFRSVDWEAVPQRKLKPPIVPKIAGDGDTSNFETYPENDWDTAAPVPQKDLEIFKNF

[15] = molecular target: Alpha-1B adrenergic receptor (Homo sapiens) (UniProt P35368); conditions: Compound concentration 10.0 uM
Chain of Alpha-1B adrenergic receptor (Homo sapiens) (P35368 whole entry): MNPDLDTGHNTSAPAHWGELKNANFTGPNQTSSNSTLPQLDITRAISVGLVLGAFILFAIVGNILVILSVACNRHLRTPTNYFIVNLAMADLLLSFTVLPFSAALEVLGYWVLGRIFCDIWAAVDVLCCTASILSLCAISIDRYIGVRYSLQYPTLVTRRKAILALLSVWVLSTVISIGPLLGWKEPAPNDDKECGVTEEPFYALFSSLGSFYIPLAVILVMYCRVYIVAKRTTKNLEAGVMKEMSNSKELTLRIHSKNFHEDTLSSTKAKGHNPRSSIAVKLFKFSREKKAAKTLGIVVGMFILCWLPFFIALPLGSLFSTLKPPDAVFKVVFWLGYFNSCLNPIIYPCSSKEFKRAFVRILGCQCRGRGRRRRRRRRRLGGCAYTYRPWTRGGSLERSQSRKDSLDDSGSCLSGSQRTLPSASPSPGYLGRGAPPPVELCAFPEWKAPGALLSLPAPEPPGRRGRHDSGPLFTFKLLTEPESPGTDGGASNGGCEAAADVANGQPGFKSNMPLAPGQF

[16] = molecular target: Serine/threonine-protein kinase RIO2 (Homo sapiens) (UniProt Q9BVS4); conditions: Compound concentration 1000.0 nM
[17] = molecular target: Serine/threonine-protein kinase PAK 4 (Homo sapiens) (UniProt O96013); conditions: Compound concentration 1000.0 nM
[18] = molecular target: Wee1-like protein kinase 2 (Homo sapiens) (UniProt P0C1S8); conditions: Compound concentration 1000.0 nM
Chain of Wee1-like protein kinase 2 (Homo sapiens) (P0C1S8 whole entry, looked up, canonical isoform): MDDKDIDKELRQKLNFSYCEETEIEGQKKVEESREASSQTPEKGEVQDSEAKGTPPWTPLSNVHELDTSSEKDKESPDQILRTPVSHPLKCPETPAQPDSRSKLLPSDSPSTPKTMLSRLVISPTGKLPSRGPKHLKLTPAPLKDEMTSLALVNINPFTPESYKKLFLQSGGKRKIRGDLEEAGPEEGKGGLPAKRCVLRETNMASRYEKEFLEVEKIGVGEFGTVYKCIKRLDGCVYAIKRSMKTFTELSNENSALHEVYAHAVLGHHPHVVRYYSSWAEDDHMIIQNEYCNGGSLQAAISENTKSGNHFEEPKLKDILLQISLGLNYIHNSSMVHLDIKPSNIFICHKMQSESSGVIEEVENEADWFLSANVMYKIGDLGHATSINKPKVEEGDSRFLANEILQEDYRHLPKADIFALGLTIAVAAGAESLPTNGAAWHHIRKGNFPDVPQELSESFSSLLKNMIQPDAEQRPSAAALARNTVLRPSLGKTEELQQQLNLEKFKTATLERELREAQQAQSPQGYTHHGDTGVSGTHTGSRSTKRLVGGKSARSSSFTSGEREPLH

[19] = system: Phosphatidylinositol 4,5-bisphosphate 3-kinase catalytic subunit alpha isoform (Homo sapiens), P42336 [Q546K]; conditions: Compound concentration 1000.0 nM
[20] = molecular target: G protein-coupled receptor kinase 4 (Homo sapiens) (UniProt P32298); conditions: Compound concentration 1000.0 nM
[21] = molecular target: Interleukin-1 receptor-associated kinase 1 (Homo sapiens) (UniProt P51617); conditions: Compound concentration 1000.0 nM
[22] = molecular target: Serine/threonine-protein kinase MRCK gamma (Homo sapiens) (UniProt Q6DT37); conditions: Compound concentration 1000.0 nM
[23] = molecular target: Serine/threonine-protein kinase PAK 5 (Homo sapiens) (UniProt Q9P286); conditions: Compound concentration 1000.0 nM
[24] = molecular target: T2, 5-hydroxytryptamine receptor 2C (Homo sapiens) (UniProt P28335); conditions: Compound concentration 10.0 uM
T2 sequence (whole entry): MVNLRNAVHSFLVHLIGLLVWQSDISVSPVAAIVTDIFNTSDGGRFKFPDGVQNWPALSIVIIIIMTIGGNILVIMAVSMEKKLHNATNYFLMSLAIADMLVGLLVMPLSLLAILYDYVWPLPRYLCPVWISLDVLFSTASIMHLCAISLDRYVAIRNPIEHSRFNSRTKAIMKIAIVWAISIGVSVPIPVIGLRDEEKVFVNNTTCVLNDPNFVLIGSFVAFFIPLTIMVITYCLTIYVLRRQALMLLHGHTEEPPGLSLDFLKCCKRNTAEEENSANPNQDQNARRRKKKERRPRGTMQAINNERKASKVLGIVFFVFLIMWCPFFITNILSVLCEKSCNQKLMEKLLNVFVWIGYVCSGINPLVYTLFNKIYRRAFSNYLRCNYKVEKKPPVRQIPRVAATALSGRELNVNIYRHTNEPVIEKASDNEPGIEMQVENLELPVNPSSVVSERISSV

[25] = molecular target: Mitogen-activated protein kinase kinase kinase kinase 1 (Homo sapiens) (UniProt Q92918); conditions: Compound concentration 1000.0 nM
[26] = molecular target: Mitogen-activated protein kinase kinase kinase 5 (Homo sapiens) (UniProt Q99683); conditions: Compound concentration 1000.0 nM
Chain of Mitogen-activated protein kinase kinase kinase 5 (Homo sapiens) (Q99683 whole entry): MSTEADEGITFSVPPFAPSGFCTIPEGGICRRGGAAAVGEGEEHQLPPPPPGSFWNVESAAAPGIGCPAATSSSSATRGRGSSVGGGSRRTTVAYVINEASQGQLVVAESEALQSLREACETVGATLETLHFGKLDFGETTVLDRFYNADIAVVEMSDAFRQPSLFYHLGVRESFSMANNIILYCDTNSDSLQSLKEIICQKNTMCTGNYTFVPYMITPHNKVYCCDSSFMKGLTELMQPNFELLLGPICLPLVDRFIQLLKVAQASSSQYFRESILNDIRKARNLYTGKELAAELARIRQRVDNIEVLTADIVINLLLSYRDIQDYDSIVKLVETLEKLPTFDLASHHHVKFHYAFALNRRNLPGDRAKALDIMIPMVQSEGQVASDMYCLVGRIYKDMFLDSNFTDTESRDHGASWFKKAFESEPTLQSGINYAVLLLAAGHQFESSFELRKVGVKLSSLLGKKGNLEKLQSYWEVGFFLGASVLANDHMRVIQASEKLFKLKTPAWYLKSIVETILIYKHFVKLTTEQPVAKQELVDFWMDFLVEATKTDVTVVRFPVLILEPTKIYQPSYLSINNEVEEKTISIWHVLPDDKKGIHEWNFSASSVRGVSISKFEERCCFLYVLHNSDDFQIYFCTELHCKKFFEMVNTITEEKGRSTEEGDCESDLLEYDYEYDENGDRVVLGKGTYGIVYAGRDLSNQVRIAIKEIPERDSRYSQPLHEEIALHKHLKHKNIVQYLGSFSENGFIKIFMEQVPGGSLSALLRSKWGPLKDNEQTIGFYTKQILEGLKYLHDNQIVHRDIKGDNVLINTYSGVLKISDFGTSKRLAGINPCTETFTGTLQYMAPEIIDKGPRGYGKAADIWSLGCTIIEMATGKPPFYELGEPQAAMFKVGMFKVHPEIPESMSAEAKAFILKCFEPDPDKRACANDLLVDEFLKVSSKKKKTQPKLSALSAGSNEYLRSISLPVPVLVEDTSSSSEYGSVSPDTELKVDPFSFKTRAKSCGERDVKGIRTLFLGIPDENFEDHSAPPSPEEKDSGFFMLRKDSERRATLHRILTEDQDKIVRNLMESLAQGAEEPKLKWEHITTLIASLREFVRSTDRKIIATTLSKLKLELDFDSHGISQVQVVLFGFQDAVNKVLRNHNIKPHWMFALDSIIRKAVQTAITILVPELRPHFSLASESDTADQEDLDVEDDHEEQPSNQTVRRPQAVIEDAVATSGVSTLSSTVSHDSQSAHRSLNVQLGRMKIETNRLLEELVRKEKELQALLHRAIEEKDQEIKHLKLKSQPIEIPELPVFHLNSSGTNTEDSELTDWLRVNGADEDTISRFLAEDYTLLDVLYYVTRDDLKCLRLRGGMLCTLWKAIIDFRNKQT

[27] = molecular target: Ephrin type-B receptor 2 (Homo sapiens) (UniProt P29323); conditions: Compound concentration 1000.0 nM
[28] = molecular target: Phosphatidylinositol 4-phosphate 5-kinase type-1 alpha (Homo sapiens) (UniProt Q99755); conditions: Compound concentration 1000.0 nM
[29] = molecular target: Alpha-2A adrenergic receptor (Homo sapiens) (UniProt P08913); conditions: Compound concentration 10.0 uM
[30] = molecular target: Myosin light chain kinase 2, skeletal/cardiac muscle (Homo sapiens) (UniProt Q9H1R3); conditions: Compound concentration 1000.0 nM
[31] = molecular target: Tyrosine-protein kinase ZAP-70 (Homo sapiens) (UniProt P43403); conditions: Compound concentration 1000.0 nM
[32] = molecular target: Activin receptor type-2B (Homo sapiens) (UniProt Q13705); conditions: Compound concentration 1000.0 nM

Cn1cncc1[C@@](O)(COc1ccc(C#N)cc1-c1ccc(OC(F)(F)F)cc1)c1ccc(C#N)cc1 [A-108]
inactive: inhibition [1] 25.8% | residual activity [2] 93% | residual activity [3] 90% | residual activity [4] 100% | residual activity [5] 100% | residual activity [6] 90% | residual activity [7] 100% | residual activity [8] 100% | residual activity [9] 91% | residual activity [10] 100% | residual activity [11] 100% | residual activity [12] 100% | residual activity [13] 60% | residual activity [14] 94% | inhibition [15] 5.97% | residual activity [16] 100% | residual activity [17] 100% | residual activity [18] 100% | residual activity [19] 85% | residual activity [20] 56% | residual activity [21] 73% | residual activity [22] 96% | residual activity [23] 100% | inhibition [24] 17.1% | residual activity [25] 100% | residual activity [26] 91% | residual activity [27] 100% | residual activity [28] 87% | inhibition [29] 3.37% | residual activity [30] 100% | residual activity [31] 100% | residual activity [32] 100%

Cn1cncc1[C@](O)(COc1ccc(C#N)cc1-c1ccc(OC(F)(F)F)cc1)c1ccc(C#N)cc1 [ABT-100]
inactive: inhibition [1] -4.07% | residual activity [2] 93% | residual activity [3] 79% | residual activity [4] 71% | residual activity [5] 83% | residual activity [6] 100% | residual activity [7] 100% | residual activity [8] 83% | residual activity [9] 90% | residual activity [10] 100% | residual activity [11] 96% | residual activity [12] 75% | residual activity [13] 80% | residual activity [14] 87% | inhibition [15] 16.6% | residual activity [16] 83% | residual activity [17] 100% | residual activity [18] 84% | residual activity [19] 82% | residual activity [20] 62% | residual activity [21] 83% | residual activity [22] 85% | residual activity [23] 94% | inhibition [24] 0.26% | residual activity [25] 100% | residual activity [26] 77% | residual activity [27] 94% | residual activity [28] 91% | inhibition [29] 32.2% | residual activity [30] 78% | residual activity [31] 78% | residual activity [32] 100%
